# Measured values from patent US20150118179A1, “BIOCIDAL COMPOUNDS AND METHODS FOR USING SAME” (UNIVERSITY OF MANITOBA, priority 2012, published 2015).
# Experiments:
# E. coli ATCC 25922 = test: Biocidal activity in bacterial suspension (Example 17); assay type: cell-based, Escherichia coli; settings: 15 ppm [Cl+]
# Description: (§1) In the model study we investigated the bactericidal performance of small molecules 2 and 43 against three strains for each bacterium at the concentration of 15 ppm.
# (§2) Tryptone Soya Agar (TSA) was used for bacterial culture. After sub-cultured from stocks, bacteria were allowed to grow at 37° C. for 18-20 hours to obtain logarithmic-phase cultures. Biocidal activity of 2 and 43 were completed as followed. To 20 mL bacterial suspension (10^6-10^7 colony forming units (CFU)/mL) in a centrifuge tube was added 30 μL it 2 or 43 solutions (0.28 M stock solution) respectively to achieve final 15 ppm [Cl^+]). Timing of the exposure to the disinfectant was started immediately with the addition of the synthetic compound 2 or 43. After the contact for 5 min, 10 min, and 20 min respectively, 1.0 mL aliquots were withdrawn and added to an equal volume of 0.02 N sodium thiosulfate in PBS (0.05 M, pH 7.0). The quenched suspension was serially diluted and 100 μL of each resulting dilutions were placed onto nutrient agar plates. The same procedure was also applied to compounds 1 and 42 as controls. After being incubated at 37° C. for 24 hours, viable bacterial colonies on the plates were counted. Bacterial reduction was reported according to the following equation.
# (§3) Percentage reduction of bacteria (%)=(A−B)/A×100
# (§4) Where A is the number of bacteria retrieved from controls (CFU/mL), and B is the number of bacteria retrieved from 2 or 43 (CFU/mL).
# MDR-E. coli (#70094) = test: as above; assay type: cell-based, Escherichia coli; settings: 15 ppm [Cl+]
# Description: as §1, §2, §3, §4
# MDR-E. coli (#95882) = test: as above; assay type: cell-based, Escherichia coli; settings: 15 ppm [Cl+]
# Description: as §1, §2, §3, §4
# MRSA (#70527) = test: as above; assay type: cell-based, Staphylococcus aureus; settings: 15 ppm [Cl+]
# Description: as §1, §2, §3, §4
# MRSA (#77090) = test: as above; assay type: cell-based, Staphylococcus aureus; settings: 15 ppm [Cl+]
# Description: as §1, §2, §3, §4
# MRSA ATCC33592 = test: as above; assay type: cell-based, Staphylococcus aureus; settings: 15 ppm [Cl+]
# Description: as §1, §2, §3, §4
# CA-MRSA 40065 = test: Biocidal activity in bacterial suspension (Example 18); assay type: cell-based, Staphylococcus aureus; settings: Table 2, 15 ppm [Cl+], inoculum 1.57-1.75 × 10^6 CFU/mL
# Description: Logarithmic-phase cultures of MRSA were prepared using similar way except TSA broth was used instead.
# (§5) Biocidal activity of synthetic compounds was completed as followed. To 20 mL of bacterial suspension (10^5 or 10^6 cfu/mL) in a centrifuge tube was added 30 μL solution of synthetic compounds (0.282 M stock solution) to achieve a final [Cl^+] of 15 ppm. Timing of the exposure to the disinfectant was started immediately with the addition of the synthetic compound. After predetermined contact time, 1.0 mL aliquots were withdrawn and added to an equal volume of 0.02 N sodium thiosulfate in PBS (0.1 M, pH 7.4). The quenched suspension was serially diluted and 100 μL of each resulting dilution was placed onto nutrient agar plates. After being incubated at 37° C. for 24 hours, the viable bacterial colonies on the plates were counted. Bacterial reduction was reported according to:
# as §3
# (§6) Log reduction=Log(A/B) (4)
# (§7) where A is the number of bacteria in the starting inoculum (cfu/mL), and B is the number of bacteria retrieved from synthetic compounds (cfu/mL).
# P. aeruginosa 73104 = test: as above; assay type: cell-based, Pseudomonas aeruginosa; settings: 15 ppm [Cl+]
# Description: Logarithmic-phase cultures of P. aeruginosa were prepared by initially suspending several colonies in cation-supplemented Mueller-Hinton broth (Oxoid, Nepean, Ontario, Canada) at a density equivalent to a 0.5 McFarland standard (1×10^8 cfu/mL). This suspension was then diluted 1:100 and 20 μL of the diluted suspension was further diluted in 60 mL of cation-supplemented Mueller-Hinton broth. Following overnight growth at 37° C., suspensions were diluted 1:[…] to get inoculums of approximately 1×10^6 or 1×10^5 cfu/mL.
# as §5, §3, §6, §7
# [1] = Table 3, contact 60 min, inoculum 2.26 × 10^5 CFU/mL
# [2] = Table 3, contact 90 min, inoculum 2.26 × 10^5 CFU/mL
# [3] = Table 4, contact 3 min, inoculum 2.26-2.98 × 10^5 CFU/mL
# [4] = Table 4, contact 5 min, inoculum 2.26-2.98 × 10^5 CFU/mL
# [5] = Table 4, contact 10 min, inoculum 2.26-2.98 × 10^5 CFU/mL
# [6] = Table 4, contact 20 min, inoculum 2.26-2.98 × 10^5 CFU/mL
# [7] = Table 4, contact 30 min, inoculum 2.26-2.98 × 10^5 CFU/mL
# [8] = Table 4, contact 45 min, inoculum 2.26-2.98 × 10^5 CFU/mL
# [9] = Table 4, contact 60 min, inoculum 2.26-2.98 × 10^5 CFU/mL
compound,measurement,setting,value
CC1(C)C(=O)N(CCC[N+](C)(C)C)C(=O)N1Cl [Compound 2],Bacteria reduction Log10,E. coli ATCC 25922; contact 5 min,6.63 Log10
same,Bacteria reduction %,"E. coli ATCC 25922; contact 5 min, inoculum 1.46-5.87 × 10^6 CFU/mL",100%
same,Bacteria reduction %,E. coli ATCC 25922; contact 10 min,100%
same,Bacteria reduction Log10,E. coli ATCC 25922; contact 10 min,6.63 Log10
same,Bacteria reduction %,E. coli ATCC 25922; contact 20 min,100%
same,Bacteria reduction Log10,E. coli ATCC 25922; contact 20 min,6.63 Log10
same,Bacteria reduction %,MDR-E. coli (#70094); contact 5 min,100%
same,Bacteria reduction Log10,MDR-E. coli (#70094); contact 5 min,6.17 Log10
same,Bacteria reduction %,MDR-E. coli (#70094); contact 10 min,100%
same,Bacteria reduction Log10,MDR-E. coli (#70094); contact 10 min,6.17 Log10
same,Bacteria reduction %,MDR-E. coli (#70094); contact 20 min,100%
same,Bacteria reduction Log10,MDR-E. coli (#70094); contact 20 min,6.17 Log10
same,Bacteria reduction %,MDR-E. coli (#95882); contact 5 min,100%
same,Bacteria reduction Log10,MDR-E. coli (#95882); contact 5 min,6.67 Log10
same,Bacteria reduction %,MDR-E. coli (#95882); contact 10 min,100%
same,Bacteria reduction Log10,MDR-E. coli (#95882); contact 10 min,6.67 Log10
same,Bacteria reduction %,MDR-E. coli (#95882); contact 20 min,100%
same,Bacteria reduction Log10,MDR-E. coli (#95882); contact 20 min,6.67 Log10
same,Bacteria reduction %,MRSA (#70527); contact 5 min,100%
same,Bacteria reduction Log10,MRSA (#70527); contact 5 min,6.76 Log10
same,Bacteria reduction %,MRSA (#70527); contact 10 min,100%
same,Bacteria reduction Log10,MRSA (#70527); contact 10 min,6.76 Log10
same,Bacteria reduction %,MRSA (#70527); contact 20 min,100%
same,Bacteria reduction Log10,MRSA (#70527); contact 20 min,6.76 Log10
same,Bacteria reduction %,MRSA (#77090); contact 5 min,100%
same,Bacteria reduction Log10,MRSA (#77090); contact 5 min,6.16 Log10
same,Bacteria reduction %,MRSA (#77090); contact 10 min,100%
same,Bacteria reduction Log10,MRSA (#77090); contact 10 min,6.16 Log10
same,Bacteria reduction %,MRSA (#77090); contact 20 min,100%
same,Bacteria reduction Log10,MRSA (#77090); contact 20 min,6.16 Log10
same,Bacteria reduction %,MRSA ATCC33592; contact 5 min,100%
same,Bacteria reduction Log10,MRSA ATCC33592; contact 5 min,6.60 Log10
same,Bacteria reduction %,MRSA ATCC33592; contact 10 min,100%
same,Bacteria reduction Log10,MRSA ATCC33592; contact 10 min,6.60 Log10
same,Bacteria reduction %,MRSA ATCC33592; contact 20 min,100%
same,Bacteria reduction Log10,MRSA ATCC33592; contact 20 min,6.60 Log10
same,Bacteria reduction %,CA-MRSA 40065; contact 3 min,92.8%
same,Bacteria reduction Log10,CA-MRSA 40065; contact 3 min,1.14 Log10
same,Bacteria reduction %,CA-MRSA 40065; contact 5 min,93.8%
same,Bacteria reduction Log10,CA-MRSA 40065; contact 5 min,1.20 Log10
same,Bacteria reduction %,CA-MRSA 40065; contact 10 min,90.3%
same,Bacteria reduction Log10,CA-MRSA 40065; contact 10 min,1.01 Log10
same,Bacteria reduction %,CA-MRSA 40065; contact 60 min,99.6%
same,Bacteria reduction Log10,CA-MRSA 40065; contact 60 min,2.36 Log10
same,Reduction of P. aeruginosa,"P. aeruginosa 73104; 10^6 cfu/mL P. aeruginosa, within 60 min of contact",cannot bring any significant reduction
same,Bacteria reduction %,"P. aeruginosa 73104; Table 3, contact 3 min, inoculum 2.26 × 10^5 CFU/mL",37.6 ± 1.9%
same,Bacteria reduction %,"P. aeruginosa 73104; Table 3, contact 5 min, inoculum 2.26 × 10^5 CFU/mL",26.6 ± 12.5%
same,Bacteria reduction Log10,"P. aeruginosa 73104; Table 3, contact 10 min, inoculum 2.26 × 10^5 CFU/mL",0.41 ± 0.02 Log10
same,Bacteria reduction %,P. aeruginosa 73104; [1],100%
same,Bacteria reduction Log10,P. aeruginosa 73104; [1],5.35 Log10
same,Bacteria reduction %,P. aeruginosa 73104; [2],100%
same,Bacteria reduction Log10,P. aeruginosa 73104; [2],5.35 Log10
same,Bacteria reduction %,P. aeruginosa 73104; [3],37.6%
same,Bacteria reduction Log,P. aeruginosa 73104; [3],0.2 Log
same,Bacteria reduction %,P. aeruginosa 73104; [4],26.6%
same,Bacteria reduction Log,P. aeruginosa 73104; [4],0.14 Log
same,Bacteria reduction %,P. aeruginosa 73104; [5],61.5%
same,Bacteria reduction Log,P. aeruginosa 73104; [5],0.41 Log
same,Bacteria reduction %,P. aeruginosa 73104; [6],99.65%
same,Bacteria reduction Log,P. aeruginosa 73104; [6],2.46 Log
same,Bacteria reduction %,P. aeruginosa 73104; [7],99.99%
same,Bacteria reduction Log,P. aeruginosa 73104; [7],4.02 Log
same,Bacteria reduction %,P. aeruginosa 73104; [8],99.99%
same,Bacteria reduction Log,P. aeruginosa 73104; [8],4.67 Log
same,Bacteria reduction %,P. aeruginosa 73104; [9],100%
same,Bacteria reduction Log,P. aeruginosa 73104; [9],5.47 Log
